Patent US10597388B2, “Pyridazinone herbicides” (FMC CORPORATION, priority 2014, dated 2020)

Assays:
Assay in all cases: Test D controlled growth environment herbicide test, pre- and postemergence
Type in all cases: in vivo
[1] = test system: Russian thistle (Salsola kali)
Text: (§1) Seeds of plant species selected from bluegrass (annual bluegrass, Poa annua), blackgrass (Alopecurus myosuroides), Canada thistle (Cirsium arvense), canarygrass (Phalaris minor), chickweed (common chickweed, Stellaria media), geranium, cutleaf (cutleaf geranium, Geranium dissectum), galium (catchweed bedstraw, Galium aparine), bromegrass, downy (downy bromegrass, Bromus tectorum), field poppy (Papaver rhoeas), field violet (Viola arvensis), foxtail, green (green foxtail, Setaria viridis), deadnettle (henbit deadnettle, Lamium amplexicaule), ryegrass, Italian (Italian ryegrass, Lolium multiflorum), kochia (Kochia scoparia), lambsquarters (Chenopodium album), oilseed rape (Brassica napus), pigweed (Amaranthus retroflexus), chamomile (scentless chamomile, Matricaria inodora), Russian thistle (Salsola kali), speedwell (bird's-eye speedwell, Veronica persica), barley, spring (spring barley, Hordeum vulgare), wheat, spring (spring wheat, Triticum aestivum), buckwheat, wild (wild buckwheat, Polygonum convolvulus), mustard, wild (wild mustard, Sinapis arvensis), oat, wild (wild oat, Avena fatua), radish, wild (wild radish, Raphanus raphanistrum), windgrass (Apera spica-venti), barley, winter (winter barley, Hordeum vulgare), and wheat, winter (winter wheat, Triticum aestivum) were planted into a silt loam soil and treated preemergence with test chemicals formulated in a non-phytotoxic solvent mixture which included a surfactant.
(§2) At the same time, these species were planted in pots containing Redi-Earth® planting medium (Scotts Company, 14111 Scottslawn Road, Marysville, Ohio 43041) comprising spaghnum peat moss, vermiculite, wetting agent and starter nutrients and treated with postemergence applications of the test chemicals formulated in the same manner. Plants ranged in height from 2 to 18 cm (1- to 4-leaf stage). Treated plants and controls were maintained in a controlled growth environment for 14 to 21 d after which time all species were compared to controls and visually evaluated. Plant response ratings, summarized in Table D, are based on a scale of 0 to 100 where 0 is no effect and 100 is complete control. A dash (-) response means no test result.

[2] = test system: barley, spring (spring barley, Hordeum vulgare)
Text: as §1, §2

[3] = test system: bluegrass (annual bluegrass, Poa annua)
Text: as §1, §2

[4] = test system: deadnettle (henbit deadnettle, Lamium amplexicaule)
Text: as §1, §2

[5] = test system: field violet (Viola arvensis)
Text: as §1, §2

[6] = test system: foxtail, green (green foxtail, Setaria viridis)
Text: as §1, §2

kochia (Kochia scoparia) = test system: kochia (Kochia scoparia)
Text: as §1, §2

[7] = test system: mustard, wild (wild mustard, Sinapis arvensis)
Text: as §1, §2

[8] = test system: oat, wild (wild oat, Avena fatua)
Text: as §1, §2

[9] = test system: pigweed (Amaranthus retroflexus)
Text: as §1, §2

[10] = test system: wheat, spring (spring wheat, Triticum aestivum)
Text: as §1, §2

[11] = test system: wheat, winter (winter wheat, Triticum aestivum)
Text: as §1, §2

[12] = test system: windgrass (Apera spica-venti)
Text: as §1, §2

[13] = Postemergence, 31 g ai/ha, scale 0 to 100 (0 no effect, 100 complete control)
[14] = Postemergence, 125 g ai/ha, visual rating on scale 0 (no effect) to 100 (complete control), 14 to 21 d
[15] = Postemergence, 250 g ai/ha, scale 0 to 100 (0 no effect, 100 complete control)
[16] = Preemergence, 62 g ai/ha, scale 0 to 100 (0 no effect, 100 complete control)
[17] = Preemergence, 125 g ai/ha, scale 0 to 100 (0 no effect, 100 complete control)
[18] = Preemergence, 250 g ai/ha, scale 0 to 100 (0 no effect, 100 complete control)
[19] = postemergence, 62 g ai/ha, scale 0 to 100, 0 no effect, 100 complete control

## CCOC(=O)Oc1c(C)nn(C)c(=O)c1-c1c(C)ccc2ccccc12 [Compound 73]
[1]; [13]
  Russian Thistle plant response rating: 75
[1]; [14]
  Plant response rating, Russian Thistle: 80
[1]; [15]
  Plant response rating, Russian Thistle: 85
[1]; Preemergence, 31 g ai/ha
  Plant response rating (scale of 0 to 100), Russian Thistle: 10
[1]; [16]
  Plant response rating, Russian Thistle: 25
[1]; [17]
  Plant response rating, Russian Thistle: 40
[1]; [18]
  Plant response rating, Russian Thistle: 75
[1]; [19]
  Plant response rating, Russian Thistle: 80
[2]; [13]
  Barley, Spring plant response rating: 10
[2]; [14]
  Plant response rating, Barley, Spring: 30
[2]; [15]
  Plant response rating, Barley, Spring: 40
[2]; Preemergence, 31 g ai/ha
  Plant response rating (scale of 0 to 100), Barley, Spring: 0
[2]; [16]
  Plant response rating, Barley, Spring: 10
[2]; [17]
  Plant response rating, Barley, Spring: 0
[2]; [18]
  Plant response rating, Barley, Spring: 60
[2]; [19]
  Plant response rating, Barley, Spring: 25
[3]; [13]
  Bluegrass plant response rating: 15
[3]; [14]
  Plant response rating, Bluegrass: 55
[3]; [15]
  Plant response rating, Bluegrass: 65
[3]; Preemergence, 31 g ai/ha
  Plant response rating (scale of 0 to 100), Bluegrass: 15
[3]; [16]
  Plant response rating, Bluegrass: 35
[3]; [17]
  Plant response rating, Bluegrass: 35
[3]; [18]
  Plant response rating, Bluegrass: 30
[3]; [19]
  Plant response rating, Bluegrass: 30
[4]; [13]
  Deadnettle plant response rating: 75
[4]; [14]
  Plant response rating, Deadnettle: 100
[4]; [15]
  Plant response rating, Deadnettle: 100
[4]; Preemergence, 31 g ai/ha
  Plant response rating (scale of 0 to 100), Deadnettle: 0
[4]; [16]
  Plant response rating, Deadnettle: 0
[4]; [17]
  Plant response rating, Deadnettle: 70
[4]; [18]
  Plant response rating, Deadnettle: 100
[4]; [19]
  Plant response rating, Deadnettle: 90
[5]; [13]
  Field Violet plant response rating: 90
[5]; [14]
  Plant response rating, Field Violet: 90
[5]; [15]
  Plant response rating, Field Violet: 90
[5]; Preemergence, 31 g ai/ha
  Plant response rating (scale of 0 to 100), Field Violet: 35
[5]; [16]
  Plant response rating, Field Violet: 75
[5]; [17]
  Plant response rating, Field Violet: 80
[5]; [18]
  Plant response rating, Field Violet: 95
[5]; [19]
  Plant response rating, Field Violet: 95
[6]; [13]
  Foxtail, Green plant response rating: 65
[6]; [14]
  Plant response rating, Foxtail, Green: 75
[6]; [15]
  Plant response rating, Foxtail, Green: 80
[6]; Preemergence, 31 g ai/ha
  Plant response rating (scale of 0 to 100), Foxtail, Green: 15
[6]; [16]
  Plant response rating, Foxtail, Green: 20
[6]; [17]
  Plant response rating, Foxtail, Green: 50
[6]; [18]
  Plant response rating, Foxtail, Green: 100
[6]; [19]
  Plant response rating, Foxtail, Green: 70
Kochia (Kochia scoparia); [13]
  Kochia plant response rating: 100
Kochia (Kochia scoparia); [14]
  Plant response rating, Kochia: 100
Kochia (Kochia scoparia); [15]
  Plant response rating, Kochia: 100
Kochia (Kochia scoparia); Preemergence, 31 g ai/ha
  Plant response rating (scale of 0 to 100), Kochia: 30
Kochia (Kochia scoparia); [16]
  Plant response rating, Kochia: 30
Kochia (Kochia scoparia); [17]
  Plant response rating, Kochia: 85
Kochia (Kochia scoparia); [18]
  Plant response rating, Kochia: 95
Kochia (Kochia scoparia); [19]
  Plant response rating, Kochia: 80
[7]; [13]
  Mustard, Wild plant response rating: 85
[7]; [14]
  Plant response rating, Mustard, Wild: 100
[7]; [15]
  Plant response rating, Mustard, Wild: 100
[7]; Preemergence, 31 g ai/ha
  Plant response rating (scale of 0 to 100), Mustard, Wild: 65
[7]; [16]
  Plant response rating, Mustard, Wild: 80
[7]; [17]
  Plant response rating, Mustard, Wild: 100
[7]; [18]
  Plant response rating, Mustard, Wild: 100
[7]; [19]
  Plant response rating, Mustard, Wild: 100
[8]; [13]
  Oat, Wild plant response rating: 85
[8]; [14]
  Plant response rating, Oat, Wild: 95
[8]; [15]
  Plant response rating, Oat, Wild: 100
[8]; Preemergence, 31 g ai/ha
  Plant response rating (scale of 0 to 100), Oat, Wild: 75
[8]; [16]
  Plant response rating, Oat, Wild: 90
[8]; [17]
  Plant response rating, Oat, Wild: 85
[8]; [18]
  Plant response rating, Oat, Wild: 100
[8]; [19]
  Plant response rating, Oat, Wild: 95
[9]; [13]
  Pigweed plant response rating: 100
[9]; [14]
  Plant response rating, Pigweed: 100
[9]; [15]
  Plant response rating, Pigweed: 100
[9]; Preemergence, 31 g ai/ha
  Plant response rating (scale of 0 to 100), Pigweed: 70
[9]; [16]
  Plant response rating, Pigweed: 100
[9]; [17]
  Plant response rating, Pigweed: 100
[9]; [18]
  Plant response rating, Pigweed: 100
[9]; [19]
  Plant response rating, Pigweed: 100
[10]; [13]
  Wheat, Spring plant response rating: 45
[10]; [14]
  Plant response rating, Wheat, Spring: 70
[10]; [15]
  Plant response rating, Wheat, Spring: 85
[10]; Preemergence, 31 g ai/ha
  Plant response rating (scale of 0 to 100), Wheat, Spring: 15
[10]; [16]
  Plant response rating, Wheat, Spring: 55
[10]; [17]
  Plant response rating, Wheat, Spring: 70
[10]; [18]
  Plant response rating, Wheat, Spring: 85
[10]; [19]
  Plant response rating, Wheat, Spring: 55
[11]; [13]
  Wheat, Winter plant response rating: 25
[11]; [14]
  Plant response rating, Wheat, Winter: 65
[11]; [15]
  Plant response rating, Wheat, Winter: 75
[11]; Preemergence, 31 g ai/ha
  Plant response rating (scale of 0 to 100), Wheat, Winter: 15
[11]; [16]
  Plant response rating, Wheat, Winter: 40
[11]; [17]
  Plant response rating, Wheat, Winter: 50
[11]; [18]
  Plant response rating, Wheat, Winter: 75
[11]; [19]
  Plant response rating, Wheat, Winter: 35
[12]; [13]
  Windgrass plant response rating: 70
[12]; [14]
  Plant response rating, Windgrass: 75
[12]; [15]
  Plant response rating, Windgrass: 85
[12]; Preemergence, 31 g ai/ha
  Plant response rating (scale of 0 to 100), Windgrass: 40
[12]; [16]
  Plant response rating, Windgrass: 65
[12]; [17]
  Plant response rating, Windgrass: 90
[12]; [18]
  Plant response rating, Windgrass: 95
[12]; [19]
  Plant response rating, Windgrass: 70
